Experimental data as given in the CheMixHub ionic liquid set.
Where “and” joins values, the source holds several entries; their conditions need not be identical. Identical values can stand only once. ± gives the uncertainty stated by the source.

Experiment: xn = mol fraction of the nth substance listed

CCCCn1cc[n+](CCOCC[n+]2ccn(CCCC)c2)c1.N#C[N-]C#N.N#C[N-]C#N + CC[n+]1ccn(C)c1.N#C[N-]C#N + O=S(=O)([N-]S(=O)(=O)C(F)(F)F)C(F)(F)F.[Li+]
100 kPa, x1 = 0.2561, x2 = 0.6541
Conditions	electrical conductivity [S/m]
298 K	0.527 ± 0.021
303 K	0.737 ± 0.029
313 K	0.921 ± 0.037
323 K	1.35 ± 0.054
333 K	1.74 ± 0.07
343 K	2.13 ± 0.085

II + CCCC[n+]1ccn(C)c1.[I-]
Conditions	electrical conductivity [S/m]
298 K, 101.3 kPa, x2 = 0.333	3.07 ± 0.31

CC[n+]1ccn(C)c1.O=S(=O)([O-])C(F)(F)F + CCC(C)O
101 kPa
Conditions	viscosity [mPa·s]
298.15 K, x1 = 0.7986	30.77 ± 0.87
298.15 K, x1 = 1	45.67 ± 0.98
303.15 K, x1 = 0.3938	6.96 ± 0.6
303.15 K, x1 = 0.4988	9.31 ± 0.61
303.15 K, x1 = 0.5952	13.31 ± 0.81
303.15 K, x1 = 0.7986	26.05 ± 0.85
308.15 K, x1 = 0.3938	6.16 ± 0.6
308.15 K, x1 = 0.903	28.15 ± 0.87
313.15 K, x1 = 0.1945	3.63 ± 0.6
313.15 K, x1 = 0.4988	7.33 ± 0.6
313.15 K, x1 = 0.5952	10.28 ± 0.61
313.15 K, x1 = 0.6907	14.61 ± 0.82
313.15 K, x1 = 1	27.68 ± 0.87
318.15 K, x1 = 0.4988	6.57 ± 0.6
318.15 K, x1 = 0.903	20.96 ± 0.84
323.15 K, x1 = 0.6907	11.38 ± 0.81
323.15 K, x1 = 0.903	18.3 ± 0.83

N[C@@H](CO)C(=O)O + CCCC[n+]1ccn(C)c1.[Br-] + O
viscosity [mPa·s], 101.3 kPa
Conditions	x1 = 0.0003603, x2 = 0	x1 = 0.0007203, x2 = 0	x1 = 0.001078, x2 = 0	x1 = 0.00144, x2 = 0	x1 = 0.001781, x2 = 0	x1 = 0.002158, x2 = 0	x1 = 0.002516, x2 = 0
293.15 K	1.007 ± 0.061	1.012 ± 0.061	1.018 ± 0.061	1.023 ± 0.061	1.028 ± 0.061	1.033 ± 0.061	1.039 ± 0.061
298.15 K	0.897 ± 0.061	0.902 ± 0.061	0.907 ± 0.061	0.911 ± 0.061	0.916 ± 0.061	0.92 ± 0.061	0.925 ± 0.061
303.15 K	0.804 ± 0.061	0.809 ± 0.061	0.813 ± 0.061	0.818 ± 0.061	0.822 ± 0.061	0.827 ± 0.061	0.831 ± 0.061
308.15 K	0.727 ± 0.06	0.73 ± 0.06	0.735 ± 0.06	0.739 ± 0.06	0.744 ± 0.06	0.748 ± 0.06	0.753 ± 0.06
313.15 K	0.661 ± 0.06	0.664 ± 0.06	0.668 ± 0.06	0.673 ± 0.06	0.677 ± 0.06	0.682 ± 0.06	0.686 ± 0.06

CCCCCCn1cc[n+](CCCCCC)c1.O=S(=O)([N-]S(=O)(=O)C(F)(F)F)C(F)(F)F + O
100 kPa, x2 = 0.1489
Conditions	viscosity [mPa·s]
303.15 K	65.69 ± 0.6
328.15 K	24.7 ± 0.22

CC[NH+](C)CC.CS(=O)(=O)[O-] + O
Conditions	viscosity [mPa·s]
293.1 K, 101 kPa, x2 = 0.707	21 ± 0.26
298.15 K, 100 kPa, x1 = 0.0967	4.51 ± 0.45
298.15 K, 100 kPa, x1 = 0.4263	31.1 ± 3.1
298.15 K, 100 kPa, x1 = 0.6771	69.7 ± 7.1
303.15 K, 100 kPa, x1 = 0.0967	3.94 ± 0.4
303.15 K, 100 kPa, x1 = 0.3246	16.6 ± 1.7
303.15 K, 100 kPa, x1 = 0.6771	55.2 ± 5.6
308.15 K, 100 kPa, x1 = 0.0155	1.04 ± 0.11
308.15 K, 100 kPa, x1 = 0.5018	27.9 ± 2.8
308.15 K, 100 kPa, x1 = 0.5783	34.2 ± 3.5
308.15 K, 100 kPa, x1 = 0.7782	55.3 ± 5.6
313.1 K, 101 kPa, x2 = 0.372	27.27 ± 0.4
313.15 K, 100 kPa, x1 = 0.0571	1.79 ± 0.18
313.15 K, 100 kPa, x1 = 0.3246	11.8 ± 1.2
313.15 K, 100 kPa, x1 = 0.4263	18 ± 1.8
318.15 K, 100 kPa, x1 = 0.1582	4.46 ± 0.45
328.15 K, 100 kPa, x1 = 0.1582	3.46 ± 0.35
328.15 K, 100 kPa, x1 = 0.206	4.6 ± 0.46
328.15 K, 100 kPa, x1 = 0.5018	14.1 ± 1.4
328.15 K, 100 kPa, x1 = 0.7782	25.4 ± 2.6
333.1 K, 101 kPa, x2 = 0.372	13.95 ± 0.18
333.1 K, 101 kPa, x2 = 0.507	9.98 ± 0.13
333.15 K, 100 kPa, x1 = 0.0967	1.97 ± 0.2
333.15 K, 100 kPa, x1 = 0.3246	6.65 ± 0.67
333.15 K, 100 kPa, x1 = 0.5018	12.2 ± 1.2
338.15 K, 100 kPa, x1 = 0.0571	1.11 ± 0.11
338.15 K, 100 kPa, x1 = 0.3246	5.84 ± 0.59
338.15 K, 100 kPa, x1 = 0.4263	8.21 ± 0.83
338.15 K, 100 kPa, x1 = 0.5018	10.3 ± 1
338.15 K, 100 kPa, x1 = 0.5783	12.2 ± 1.2
338.15 K, 100 kPa, x1 = 0.6771	15.3 ± 1.6
353.1 K, 101 kPa, x2 = 0.449	6.83 ± 0.09
353.1 K, 101 kPa, x2 = 0.624	4.58 ± 0.06

CC[NH+](CC)CC.O=[N+]([O-])[O-] + CC[NH3+].O=[N+]([O-])[O-]
101 kPa, frequency 0.00293 MHz
Conditions	electrical conductivity [S/m]
293.15 K, x1 = 0.149	1.28
293.15 K, x1 = 0.1997	1.15
293.15 K, x1 = 0.25	0.97
293.15 K, x1 = 0.2993	0.86
293.15 K, x1 = 0.3475	0.79
298.15 K, x1 = 0.149	1.52
303.15 K, x1 = 0.3475	1.12
313.15 K, x1 = 0.3995	1.38
313.15 K, x1 = 0.4472	1.23
323.15 K, x1 = 0.0999	3.31
323.15 K, x1 = 0.3995	1.8

101 kPa
Conditions	viscosity [mPa·s]
293.15 K, x1 = 0.149	55.3
293.15 K, x1 = 0.1997	62.8
293.15 K, x1 = 0.25	69.1
293.15 K, x1 = 0.2993	76.9
293.15 K, x1 = 0.3475	83.5
298.15 K, x1 = 0.149	45.3
303.15 K, x1 = 0.3475	54.8
313.15 K, x1 = 0.3995	40.8
313.15 K, x1 = 0.4472	44.4
323.15 K, x1 = 0.0999	19.7
323.15 K, x1 = 0.3995	29.1
323.15 K, x1 = 0.5003	33.1
328.15 K, x1 = 0.149	18.1
328.15 K, x1 = 0.3995	25.1
328.15 K, x1 = 0.5003	28.3
328.15 K, x1 = 0.5485	27.4
333.15 K, x1 = 0.1997	17.5
333.15 K, x1 = 0.5003	24.7
333.15 K, x1 = 0.5485	23.9
338.15 K, x1 = 0.2993	17.3
338.15 K, x1 = 0.4472	20.3
343.15 K, x1 = 0.0499	11.6
343.15 K, x1 = 0.2993	15.3
348.15 K, x1 = 0.0999	11.1
348.15 K, x1 = 0.2993	13.7
348.15 K, x1 = 0.4472	15.7
353.15 K, x1 = 0.2993	12.4

CCCCCCCCCC[n+]1ccn(C)c1.O=S(=O)([O-])C(F)(F)C(F)(F)C(F)(F)C(F)(F)F + O
298.15 K, 100 kPa
Conditions	electrical conductivity [S/m]
x1 = 1.66e-06	0.00043 ± 1e-05
x1 = 2.36e-06	0.00063 ± 1e-05
x1 = 3.06e-06	0.00086 ± 2e-05
x1 = 4.11e-06	0.00114 ± 2e-05
x1 = 5.17e-06	0.00146 ± 3e-05
x1 = 5.95e-06	0.00163 ± 3e-05
x1 = 6.65e-06	0.00186 ± 4e-05
x1 = 7.44e-06	0.00212 ± 4e-05
x1 = 8.14e-06	0.00237 ± 5e-05
x1 = 8.76e-06	0.00252 ± 5e-05
x1 = 9.8e-06	0.00283 ± 6e-05
x1 = 1.042e-05	0.003 ± 6e-05
x1 = 1.103e-05	0.00323 ± 6e-05
x1 = 1.164e-05	0.00343 ± 7e-05
x1 = 1.234e-05	0.00363 ± 7e-05
x1 = 1.323e-05	0.00389 ± 8e-05
x1 = 1.384e-05	0.00412 ± 8e-05
x1 = 1.445e-05	0.00429 ± 9e-05
x1 = 1.506e-05	0.00446 ± 9e-05
x1 = 1.586e-05	0.00466 ± 9e-05
x1 = 1.638e-05	0.00486 ± 0.0001
x1 = 1.699e-05	0.00506 ± 0.0001
x1 = 1.779e-05	0.00529 ± 0.00011
x1 = 1.831e-05	0.00541 ± 0.00011
x1 = 1.901e-05	0.00569 ± 0.00011
x1 = 1.971e-05	0.00578 ± 0.00012
x1 = 2.058e-05	0.00601 ± 0.00012
x1 = 2.171e-05	0.00621 ± 0.00012
x1 = 2.26e-05	0.00635 ± 0.00013
x1 = 2.33e-05	0.00649 ± 0.00013
x1 = 2.443e-05	0.00669 ± 0.00013
x1 = 2.512e-05	0.00678 ± 0.00014
x1 = 2.618e-05	0.00695 ± 0.00014
x1 = 2.714e-05	0.00703 ± 0.00014
x1 = 2.793e-05	0.0072 ± 0.00014
x1 = 2.907e-05	0.00729 ± 0.00015
x1 = 3.011e-05	0.0074 ± 0.00015
x1 = 3.116e-05	0.00746 ± 0.00015
x1 = 3.229e-05	0.00763 ± 0.00015
x1 = 3.361e-05	0.00777 ± 0.00016
x1 = 3.526e-05	0.00791 ± 0.00016
x1 = 3.649e-05	0.008 ± 0.00016
x1 = 3.815e-05	0.00814 ± 0.00016
x1 = 3.971e-05	0.00825 ± 0.00017
x1 = 4.103e-05	0.00831 ± 0.00017

CC[n+]1ccn(C)c1.O=S(=O)([O-])C(F)(F)F + OCCO
100 kPa
Conditions	electrical conductivity	viscosity [mPa·s]
293.15 K, x1 = 0.001	–	20.7 ± 0.4
293.15 K, x1 = 0.007	–	20.4 ± 0.4
293.15 K, x2 = 0.974	–	19.6 ± 0.4
298.15 K, x1 = 0.001	0.0058 S/m and 0.0109 S/m	16.9 ± 0.4
298.15 K, x2 = 0.798	–	16.62 ± 0.62
303.15 K, x1 = 0.013	–	13.4 ± 0.3
303.15 K, x2 = 0.0943	–	30.94 ± 0.7
303.15 K, x2 = 0.2	–	23.4 ± 0.5
308.15 K, x2 = 0.6019	–	13.71 ± 0.62
308.15 K, x2 = 0.8964	–	11.78 ± 0.61
313.15 K, x1 = 0.001	0.01 S/m and 0.0188 S/m	9.53 ± 0.2
313.15 K, x2 = 0.408	–	13.87 ± 0.62
313.15 K, x2 = 0.497	–	10.6 ± 0.2
313.15 K, x2 = 0.808	1.51 ± 0.06 S/m	8 ± 0.17
318.15 K, x2 = 0.0943	–	19.42 ± 0.64
323.15 K, x2 = 0.0943	–	16.91 ± 0.63
323.15 K, x2 = 0.2021	–	13.96 ± 0.62
323.15 K, x2 = 0.408	–	11.12 ± 0.61
